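Briefly, cells in 96-well plates were exposed to five compound concentrations for 48 h, and endpoints were estimated by linear interpolation. At the GI50, growth is halved.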 Calls of active or inactive are those of the source. No stated cut-off is given here; in the data, active = GI50 up to about 1.1 µM and inactive = higher.
Tests used:
Assay in all cases: NCI anticancer screen, dose series, 48 h
CCRF-CEM = tested on: CCRF-CEM
HCT-116 = tested on: HCT-116
HCT-15 = tested on: HCT-15
LOX IMVI = tested on: LOX IMVI
M14 = tested on: M14
M19-MEL = tested on: M19-MEL
MDA-MB-435 = tested on: MDA-MB-435
MDA-N = tested on: MDA-N
MOLT-4 = tested on: MOLT-4
Malme-3M = tested on: Malme-3M
NCI-H23 = tested on: NCI-H23
NCI-H460 = tested on: NCI-H460
OVCAR-3 = tested on: OVCAR-3
RXF 393 = tested on: RXF 393
SF-268 = tested on: SF-268
SF-295 = tested on: SF-295
SK-MEL-2 = tested on: SK-MEL-2
SNB-19 = tested on: SNB-19
SNB-75 = tested on: SNB-75
SR = tested on: SR

Row | Compound | GI50 (CCRF-CEM) | GI50 (HCT-116) | GI50 (HCT-15) | GI50 (LOX IMVI) | GI50 (M14) | GI50 (M19-MEL) | GI50 (MDA-MB-435) | GI50 (MDA-N) | GI50 (MOLT-4) | GI50 (Malme-3M) | GI50 (NCI-H23) | GI50 (NCI-H460) | GI50 (OVCAR-3) | GI50 (RXF 393) | GI50 (SF-268) | GI50 (SF-295) | GI50 (SK-MEL-2) | GI50 (SNB-19) | GI50 (SNB-75) | GI50 (SR)
1 | O=C1c2ccccc2C(=O)c2c1oc1cc(O)c(Cl)cc21 | 8.71 µM (inactive) | 5.27 µM (inactive) | 4.66 µM | 1.61 µM (inactive) | 3.1 µM (inactive) | 0.177 µM (active) | 1.81 µM (inactive) | 1.75 µM (inactive) | 12.3 µM (inactive) | 1.07 µM (active) | 0.519 µM (active) | 3.04 µM (inactive) | 2.61 µM (inactive) | 9.46 µM (inactive) | 10.8 µM (inactive) | 2.8 µM (inactive) | 1.99 µM (inactive) | 8.81 µM (inactive) | 2.88 µM (inactive) | 11.8 µM (inactive)
2 | CN(C)CCCNc1c2ccccc2nc2cccc([N+](=O)[O-])c12 | 0.00824 µM (active) | 0.00152 µM (active) | < 0.001 µM | 0.00142 µM (active) | < 0.001 µM (active) | 0.01 µM (active) | < 0.001 µM (active) | 0.00102 µM (active) | 0.01 µM (active) | < 0.001 µM (active) | < 0.001 µM (active) | < 0.001 µM (active) | 0.0143 µM (active) | 0.00118 µM (active) | 0.00123 µM (active) | 0.0236 µM (active) | < 0.001 µM (active) | 0.00173 µM (active) | 0.00204 µM (active) | < 0.001 µM (active)
3 | NC1N=Nc2ccccc21 (stereo not given) | > 100 µM (inactive) | > 100 µM (inactive) | > 100 µM | > 100 µM (inactive) | > 100 µM (inactive) | > 100 µM (inactive) | – | – | > 100 µM (inactive) | > 100 µM (inactive) | > 100 µM (inactive) | > 100 µM (inactive) | > 100 µM (inactive) | > 100 µM (inactive) | > 100 µM (inactive) | > 100 µM (inactive) | > 100 µM (inactive) | > 100 µM (inactive) | > 100 µM (inactive) | > 100 µM (inactive)
4 | COC1/C=C/O[C@@]2(C)Oc3c(C)c(O)c4c(O)c(cc(O)c4c3C2=O)NC(=O)/C(C)=C\C=C\[C@H](C)C(O)[C@@H](C)[C@@H](O)[C@@H](C)[C@H](OC(C)=O)[C@@H]1C (stereo not given in full) | 2.06 µM (inactive) | – | 18.6 µM | 14 µM (inactive) | 16.1 µM (inactive) | 12.1 µM (inactive) | 19.9 µM (inactive) | 14.5 µM (inactive) | 6.31 µM (inactive) | 30.6 µM (inactive) | 13.5 µM (inactive) | – | – | 11.2 µM (inactive) | 24.5 µM (inactive) | 94.8 µM (inactive) | 13.8 µM (inactive) | 82.2 µM (inactive) | 36.8 µM (inactive) | 6.15 µM (inactive)

Source: ChEMBL document CHEMBL1201862, “PubChem BioAssay data set” (2004)
